For 40 compounds, IC50 results are on record in patent EP4624471A1, “PKMYT1 INHIBITOR, PREPARATION METHOD THEREFOR, AND PHARMACEUTICAL COMPOSITION AND USE THEREOF” (Shanghai Qilu Pharmaceutical Research and Development …, priority 2022, dated 2024).

The target of test [1] is T1, PKMYT1 enzyme (Homo sapiens, UniProt Q99640).
T1 construct: purchased Thermo Scientific A33387
T1 sequence (Q99640 1-499): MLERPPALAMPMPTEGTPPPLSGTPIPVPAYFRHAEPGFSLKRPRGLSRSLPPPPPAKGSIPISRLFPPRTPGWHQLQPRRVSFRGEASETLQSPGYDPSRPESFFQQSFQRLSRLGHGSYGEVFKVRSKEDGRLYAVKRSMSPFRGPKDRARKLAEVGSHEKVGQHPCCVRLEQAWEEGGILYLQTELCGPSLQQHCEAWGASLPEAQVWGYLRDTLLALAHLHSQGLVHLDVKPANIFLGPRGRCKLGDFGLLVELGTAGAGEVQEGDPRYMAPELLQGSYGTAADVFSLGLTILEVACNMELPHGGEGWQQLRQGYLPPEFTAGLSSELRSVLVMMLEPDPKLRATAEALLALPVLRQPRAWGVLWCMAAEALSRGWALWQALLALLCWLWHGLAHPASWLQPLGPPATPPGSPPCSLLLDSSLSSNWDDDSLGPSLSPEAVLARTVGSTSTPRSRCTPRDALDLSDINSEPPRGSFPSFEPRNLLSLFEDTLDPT
Description: PKMYT1 enzyme inhibition activity, ADP-GLO method. The format is biochemical.
Description: Enzyme inhibition activity of compounds of the present disclosure
The enzyme activity of some of the example compounds was verified using the ADP-GLO method.
PKMYT1 enzyme protein was purchased from Thermo Scientific (Cat. No.: A33387), and the ADP-GLO kit was purchased from Promega (Cat. No.: V9103).
PKMYT1 enzyme activity reaction buffer: 70 mM HEPES, 3 mM MgCl2, 3 mM MnCl2, 50 µg mL-1PEG20000, 3 µM sodium orthovanadate, 1.2 mM DTT.
The reaction plate with the added compounds was centrifuged at 2500 rpm for 1 minute.
The prepared enzyme solution was added to the reaction plate, 5 µL per well, and the final concentration of enzyme was 10 nM. The reaction plate was centrifuged at 1000 rpm for 1 minute. The reaction plate was placed in an incubator at 37°C for 15 minutes.
The prepared ATP substrate solution was added to the reaction plate, 5 µL per well, and the final concentration of ATP was 5 µM. The reaction plate was centrifuged at 1000 rpm for 1 minute. After sealing the plate with aluminum foil, the plate was placed in an incubator and the reaction was carried out at 37°C for 90 minutes.
10 µL of ADP-glo™ reagent was added to stop the kinase reaction and consume unconsumed ATP, leaving only ADP and a very low ATP background. The reaction plate was centrifuged at 1000 rpm for 1 minute. After sealing the plate with aluminum foil, the reaction was carried out at room temperature for 60 minutes.
ADP was converted to ATP by adding 20 µL of kinase detection reagent, and luciferase and luciferin were introduced to detect ATP. The reaction plate was centrifuged at 1000 rpm for 1 minute. After sealing the plate with aluminum foil, the reaction was carried out at room temperature for 60 minutes.
The ADP-GLO luminescence signal values were read by the microplate reader PHERAstar, and the readings were analyzed.

Test [2] has as its system HCC1569 cells. Description: Cytostatic activity, CTG assay (HCC1569). The format is cell-based. The settings on record: 5 days. The procedure:
Biological test example 2. Cytostatic activity of compounds of the present disclosure
CTG assay (HCC1569) was used to verify the biological activity of some of the example compounds of the present disclosure.
HCC1569 cells were purchased from ATCC (Cat. No.: CRL-2330) and cultured in a 37°C, 5% CO2 cell culture incubator. HCC1569 complete medium: RPMI-1640 liquid medium (Cat. No.: Gibico 11875-093), 20% FBS (Cat. No.: Gibico 10099-141), 1% Pen Strep (Cat. No.: Gibico 15070-063).
HCC1569 cells in a 75 cm^2 culture flask were digested with 2 mL of trypsin for 2-3 min, and then neutralized with 2 mL of 1640 complete medium. The mixture was centrifuged at 1200 rpm for 5 minutes. Cells were resuspended using 4 mL of 1640 complete medium. 500 µL of cell suspension was taken for cell counting using Vi-CELL-XR cell counter.
Using a Multidrop instrument, the HCC1569 cells were seeded in a 384-well plate at a density of 1000 cells per well (50 µL 1640 Growth Media) and administrated 24 hours later.
Using an ultra-micro pipette, the test compound (concentration: 3.33 mM, dissolved in DMSO) was diluted with 10 µM as the highest starting concentration, and then sequentially diluted in 10 gradients at a ratio of 1:3 (10000 nM, 3333 nM, 1111 nM, 370 nM, 123 nM, 41 nM, 13.7 nM, 4.6 nM, 1.5 nM, 0.5 nM) for administration treatment, with two duplicate wells for each concentration; 14 wells for positive and negative controls were set, with the positive control being the duplicate wells of 10 µM positive compound and the negative control being the duplicate wells of DMSO.
After the administration was completed, the cells were placed in a 37°C incubator for further culture for 5 days. After 5 days, 25 µL of CTG buffer was added to each well for CTG assay detection, and analyzed using a microplate reader. CTG readings were analyzed.
a = CTG value (highest concentration), b = CTG value (blank well), x = CTG value(test well).
IC50 was calculated using GraphPad PRISM 8.
Log10 (A compound concentration) was used for statistical calculation. (2) The data were input into GraphPad PRISM 8, and Analysis was selected. (3) Nonlinear regression (curve fit) was selected. (4) Log (inhibitor) vs. response-Variable slope was selected. (5) The calculation formula was selected, and the calculation was carried out according to the following formula: Y = Bottom + (Top-Bottom)/(1+10^((LogIC50-X)*HillSlope)), X: logarithm of dose or concentration, Y: response value, Top and Bottom: peak and bottom values. (6) The data were fitted to obtain IC50 values. (7) The fitting conditions were adjusted according to the specific data. Appropriate Constraint conditions were adjusted for Bottom, Top, and HillSlope. The curve that best fits the actual situation has been reached.

Where [3] appears, read: PKMYT1 enzyme 10 nM, ATP 5 µM, 37°C 90 minutes; read-out: ADP-GLO IC50.
[4] abbreviates: read-out: ADP-GLO IC50; PKMYT1 enzyme 10 nM, ATP 5 µM, 37°C 90 minutes.

Molecules are shown by their SMILES. pIC50: −log10 of the molar value. Like-named read-outs stand apart in the source and are kept apart here.

As to `CCc1nc2c(cc1C)c(C(N)=O)c(N)n2-c1c(C)c(O)cc(F)c1C` [Example 136], the pIC50 (usually −log10 of the IC50, conventionally taken in molar units) was 8.00 in test [1] (setting [3]) and 7.68 in test [2] (Homo sapiens, HCC1569, 120 h). The like results for `Cc1c(O)cc(F)c(C)c1-n1c(N)c(C(N)=O)c2cc(-c3ccccc3)cnc21` (racemic) [Example 119] were, in that order, 7.82 and 7.36.

For `CCc1cc2c(C(N)=O)c(N)n(-c3c(C)c(O)cc(F)c3C)c2nc1C` (atropisomer, axis not shown) [Example 132], the pIC50 in test [1] (setting [3]) was 8.05; in test [2] it was 7.52. For `Cc1nc(C2CC2)c2c(C(N)=O)c(N)n(-c3c(C)ccc(O)c3C)c2n1` (atropisomer, axis not shown) [Example 62.2], the pIC50 in test [1] (setting [3]) was 7.84; in test [2] (Homo sapiens, HCC1569, 120 h), 7.22.

Take `Cc1c(O)cc(F)c(C)c1-n1c(N)c(C(N)=O)c2cc(-c3ccccc3)cnc21` (atropisomer, axis not shown) [Example 119.1]: the negative logarithm of the IC50 (pIC50) in test [1] (setting [3]) is 8.33; in test [2] (Homo sapiens, HCC1569, 120 h), 7.74. Regarding `Cc1nc2c(cc1C1CCCC1)c(C(N)=O)c(N)n2-c1c(C)c(O)cc(F)c1C` [Example 112], the pIC50 in test [1] (setting [3]) was 7.47; in test [2] (Homo sapiens, HCC1569, 120 h), 7.74.

For `Cc1nc2c(cc1-c1ncco1)c(C(N)=O)c(N)n2-c1c(C)c(O)cc(F)c1C` [Example 121], the negative-log IC50 (pIC50) was 8.29 in test [1] (setting [3]) and 7.68 in test [2] (Homo sapiens, HCC1569, 120 h). Take `Cc1cc(F)c(O)c(C)c1-n1c(N)c(C(N)=O)c2cc(N(C)C)c(C)nc21` (atropisomer, axis not shown) [Example 169.1]: the pIC50 was 8.20 in test [1] (setting [3]) and 7.11 in test [2] (Homo sapiens, HCC1569, 120 h).

Take `Cc1cc(F)c(O)c(C)c1-n1c(N)c(C(N)=O)c2c3c(c(C)nc21)CCC3` (atropisomer, axis not shown) [Example 176.2]: the negative logarithm of the IC50 (pIC50) in test [1] (setting [3]) is 7.99; in test [2] (Homo sapiens, HCC1569, 120 h) it was 7.17.

On to `Cc1c(O)cc(F)c(C)c1-n1c(N)c(C(N)=O)c2cc(C3CCCCC3)cnc21` [Example 102], for which the pIC50 in test [1] (setting [3]) was 7.56; in test [2] (Homo sapiens, HCC1569, 120 h) it was 7.09. Regarding `Cc1c(O)cc(F)c(C)c1-n1c(N)c(C(N)=O)c2cc(-c3ccnn3C)cnc21` (racemic) [Example 118], the pIC50 is 8.39 in test [1] (setting [3]) and 7.19 in test [2] (Homo sapiens, HCC1569, 120 h).

As for `Cc1c(O)cc(F)c(C)c1-n1c(N)c(C(N)=O)c2cc(Cl)cnc21` [Example 81], the pIC50 in test [1] (setting [3]) was 8.04; in test [2] (Homo sapiens, HCC1569, 120 h) it was 7.18. For `Cc1nc2c(cc1-c1cnn(C)c1)c(C(N)=O)c(N)n2-c1c(C)c(O)cc(F)c1C` [Example 128], in that order: 7.77 and 7.16. For `Cc1nc2c(cc1C1=CCCC1)c(C(N)=O)c(N)n2-c1c(C)c(O)cc(F)c1C` [Example 116], in that order: 7.59 and 7.55. Turning to `Cc1cc2c(C(N)=O)c(N)n(-c3c(C)c(O)cc(F)c3C)c2nc1C` (atropisomer, axis not shown) [Example 21], the negative-log IC50 (pIC50) in test [1] (setting [3]) was 8.38; in test [2] it was 7.70. `Cc1nc2c(cc1-c1ccncc1)c(C(N)=O)c(N)n2-c1c(C)c(O)cc(F)c1C` [Example 129]: the negative-log IC50 (pIC50) in test [1] (setting [3]) is 7.98; in test [2] (Homo sapiens, HCC1569, 120 h), 7.42.

As for `Cc1cc(F)c(O)c(C)c1-n1c(N)c(C(N)=O)c2cc(C(C)C)cnc21` (atropisomer, axis not shown) [Example 170.2], the pIC50 in test [1] (setting [3]) is 8.00; in test [2] (Homo sapiens, HCC1569, 120 h), 7.10.

Take `Cc1nc2c(cc1F)c(C(N)=O)c(N)n2-c1c(C)c(O)cc(F)c1C` [Example 105]: the negative logarithm of the IC50 (pIC50) is 8.61 in test [1] (setting [3]) and 7.27 in test [2] (Homo sapiens, HCC1569, 120 h). The like results for `Cc1cc(F)c(O)c(C)c1-n1c(N)c(C(N)=O)c2cc(C3CC3)c(C)nc21` (single isomer, unassigned) [Example 141.1] were, in that order, 8.59 and 7.21. For `C#Cc1cnc2c(c1)c(C(N)=O)c(N)n2-c1c(C)c(O)cc(F)c1C` [Example 101], in that order: 8.17 and 7.03. The like results for `C=Cc1nc2c(cc1C)c(C(N)=O)c(N)n2-c1c(C)c(O)cc(F)c1C` [Example 122] were, in that order, 8.06 and 7.55. `C=Cc1cc2c(C(N)=O)c(N)n(-c3c(C)cc(F)c(O)c3C)c2nc1C` (atropisomer, axis not shown) [Example 142]: the pIC50 in test [1] (setting [3]) was 7.68; in test [2] (Homo sapiens, HCC1569, 120 h) it was 7.06. Take `C=Cc1cc2c(C(N)=O)c(N)n(-c3c(C)c(O)cc(F)c3C)c2nc1C` (racemic) [Example 111]: the pIC50 in test [1] (setting [3]) is 8.45; in test [2] (Homo sapiens, HCC1569, 120 h) it was 7.89. For `CCc1cc2c(C(N)=O)c(N)n(-c3c(C)c(O)cc(F)c3C)c2nc1C` (atropisomer, axis not shown) [Example 132.1], the pIC50 in test [1] (setting [3]) is 8.21; in test [2], 7.96.

For the compound `Cc1ccc(O)c(C)c1-n1c(N)c(C(N)=O)c2cc3c(ccn3C)nc21` [Example 206], the pIC50 in test [1] (setting [4]) was 8.18.

For the compound `Cc1c(O)cc(F)c(C)c1-n1c(N)c(C(N)=O)c2cc(F)cnc21` [Example 82], the negative-log IC50 (pIC50) in test [1] (setting [3]) is 8.27.

On to `CCc1cc2c(C(N)=O)c(N)n(-c3c(C)cc(F)c(O)c3C)c2nc1C` (single isomer, unassigned) [Example 143.1], for which, in test [1] (setting [3]), the pIC50 is 7.70.

Consider `CCCc1ncc2c(C(N)=O)c(N)n(-c3c(C)ccc(O)c3C)c2n1` [Example 87], for which, in test [1] (setting [3]), the pIC50 was 8.47. Still for that read-out and setting: as for `Cc1cc(F)c(O)c(C)c1-n1c(N)c(C(N)=O)c2cc3c(nc21)CCO3` [Example 184], the figure is 7.05.

As to `Cc1ccc(O)c(C)c1-n1c(N)c(C(N)=O)c2cnc(/C=C/C3CC3)nc21` [Example 78], the negative logarithm of the IC50 (pIC50) in test [1] (setting [4]) is 8.08. For the compound `Cc1ncc2c(C(N)=O)c(N)n(-c3c(C)c(O)cc(F)c3C)c2c1F` (racemic) [Example 71], the pIC50 in test [1] (setting [3]) was 8.10.

With `Cc1cc2c(C(N)=O)c(N)n(-c3c(C)c(C)cc(O)c3C)c2nc1C` [Example 53, 2-Amino-1-(3-hydroxy-2,5,6-trimethylphenyl)-5,6-dimethyl-1H-pyrrolo[2,3-b]pyridine-3-carboxamide], the pIC50 in test [1] (setting [3]) was 6.71. Same read-out and setting: as for `Cc1ccc(O)c(C)c1-n1c(N)c(C(N)=O)c2cc3c(nc21)OCCO3` (racemic) [Example 188], the figure is 7.98; as for `Cc1ccc(O)c(C)c1-n1c(N)c(C(N)=O)c2cnc(C#CC(C)(C)F)nc21` [Example 27], 8.15; as for `Cc1cc(F)c(O)c(C)c1-n1c(N)c(C(N)=O)c2cc(Cl)c(C)nc21` (racemic) [Example 60], 8.37. Still for that read-out and setting: as for `Cc1ccc(O)c(C)c1-n1c(N)c(C(N)=O)c2cnc(C)c(F)c21` [Example 29, 2-Amino-7-fluoro-1-(3-hydroxy-2,6-dimethylphenyl)-6-methyl-1H-pyrrolo[3,2-c]nicotinamide], the figure is 7.91. The same measure, in the same setting: as for `Cc1cc(F)c(O)c(C)c1-n1c(N)c(C(N)=O)c2c3cnccc3c(C)cc21` [Example 207], the figure is 8.39; as for `Cc1cc(F)c(O)c(C)c1-n1c(N)c(C(N)=O)c2cc(CC(C)C)c(C)nc21` (atropisomer, axis not shown) [Example 166.2], 8.42. With `COc1cc2c(C(N)=O)c(N)n(-c3c(C)cc(F)c(O)c3C)c2nc1C` (atropisomer, axis not shown) [Example 158.1], the negative-log IC50 (pIC50) in test [1] (setting [3]) was 8.12.

For the compound `Cc1ccc(O)c(C)c1-n1c(N)c(C(N)=O)c2cc(NC(=O)Nc3ccccc3)c(C)nc21` [Example 91], in test [1] (setting [3]), the pIC50 is 7.38.
